Counter-ions that a name gives are not always drawn.
System: acetylcholine-induced abdominal constriction
Test: animal or person
Assay type: in vivo, mice
Settings: 300 mg./kg. (p.o.); Preparations

Row | Compound | inhibition in acetylcholine-induced abdominal constriction test [%]
1 | CS(=O)(=O)O.Cc1cc2ccccc2n1C(C)CN1CCOCC1.O (centres unmarked) [Preparation 5A, 2-methyl-1-[1-methyl-2-(4-morpholinyl)ethyl]-1H-indole methanesulfonate hydrate] | 40

Same assay, conditions: Mus musculus, iv, 3 mg./kg. i.v.; read-out: Ach percent inhibition

Row | Compound | inhibition in vivo at 3 mg/kg [%]
2 | Cc1c(C(=O)c2cccc3ccccc23)c2ccccc2n1CC(O)CN1CCCC1 (centres unmarked) [Example 31F] | 0

Same assay, conditions: Mus musculus, iv, 10 mg./kg. i.v.; read-out: Ach percent inhibition

Row | Compound | inhibition in vivo at 10 mg/kg [%]
3 | COc1ccc(C(=O)c2c(C)n(CC(O)CN3CCCC3)c3ccccc23)cc1 (centres unmarked) [Example 31H] | 80

Same assay, conditions: Mus musculus, po, 100 mg./kg. oral; Table D, formula II intermediates (Preparations); read-out: Ach percent inhibition

Row | Compound | inhibition in vivo at 100 mg/kg [%]
4 | Cc1[nH]c2ccccc2c1C(=O)c1ccccc1-c1ccccc1 [Preparation 1AK] | 20
5 | Cc1[nH]c2ccccc2c1C(=O)c1ccc(-c2ccccc2)cc1 [Preparation 1AL] | 20
6 | COc1cc(OC)cc(C(=O)c2c(C)[nH]c3ccccc23)c1 [Preparation 1AO] | 40
7 | COc1ccc(C(=O)c2c(C)[nH]c3ccc(F)cc23)cc1 [Preparation 1F, 2-methyl-5-fluoro-3-(4-methoxybenzoyl)indole] | 0

Same assay, conditions: Mus musculus, po, 100 mg./kg. oral; read-out: Ach percent inhibition

Row | Compound | inhibition in vivo at 100 mg/kg [%]
8 | COCCNc1ccc(C(=O)c2c(C)n(CCN3CCOCC3)c3ccccc23)cc1 [Example 26A, 2-methyl-3-[4-(2-methoxyethylamino)benzoyl]-1-[2-(4-morpholinyl)ethyl]-1H-indole] | 40
9 | Cc1c(C(=O)c2ccc(N3CCCC(O)C3)cc2)c2ccccc2n1CCN1CCOCC1 (centres unmarked) [Example 26B] | 40
10 | Cc1c(C(=O)c2ccc(N3CCNCC3)cc2)c2ccccc2n1CCN1CCOCC1 [Example 26C] | 30
11 | Cc1c(C(=O)c2ccc(N3CCC(O)CC3)cc2)c2ccccc2n1CCN1CCOCC1 [Example 26D] | 30
12 | Cc1c(C(=O)c2ccc(N3CCOCC3)cc2)c2ccccc2n1CCN1CCOCC1 [Example 26G] | 20
13 | COc1ccc(C(=O)c2c(C)n(CCCNCCCCl)c3ccccc23)cc1 [Example 28, 1-[3-(3-chloropropylamino)propyl]-2-methyl-3-(4-methoxybenzoyl)-1H-indole hydrochloride] | 90
14 | COc1ccc(C(=O)c2c(C)n(CCCN3CC[S+]([O-])CC3)c3ccc(F)cc23)cc1 [Example 29A, 5fluoro-2-methyl-3-(4-methoxybenzoyl)-1-[3-(4-thiomorpholinyl)propyl]-1H-indole S-oxide maleate] | 60
15 | COc1ccc(C(=O)c2c(C)n(CCN3CC[S+]([O-])CC3)c3ccccc23)cc1 [Example 29B, 2-methyl-3-(4-methoxybenzoyl)-1-[2-(4-thiomorpholinyl)ethyl]-1H-indole S-oxide maleate] | 60
16 | COc1ccc(C(=O)c2c(C)n(CC[N+]3([O-])CC[S+]([O-])CC3)c3ccccc23)cc1 (centres unmarked) [Example 29C, 2-methyl-3-(4-methoxybenzoyl)-1-[2-(4-thiomorpholinyl)ethyl]-1H-indole S,N-dioxide dihydrate] | 0
17 | Cc1c(C(=O)c2ccccc2)c2cc(O)ccc2n1CCN1CCOCC1 [Example 30, 3-benzoyl-5-hydroxy-2-methyl-1-[2-(4-morpholinyl)ethyl]-1H-indole] | 10
18 | CCN(CC)CC(O)Cn1c(C)c(C(=O)c2ccc(OC)cc2)c2ccccc21 (centres unmarked) [Example 31-O] | 100
19 | COc1ccc(C(=O)c2c(C)n(CC(O)CN=[N+]=[N-])c3ccccc23)cc1 (centres unmarked) [Example 31J, 1-(3-azido-2-hydroxy-1-propyl)-2-methyl-3-(4-methoxybenzoyl)-1H-indole] | 10
20 | CCNCC(O)Cn1c(C)c(C(=O)c2ccc(OC)cc2)c2ccccc21 (centres unmarked) [Example 31N] | 90

Same assay, conditions: Mus musculus, po; Preparations; read-out: ED50 in acetylcholine-induced abdominal constriction test

Row | Compound | ED50 [mg/kg]
21 | Cc1cc2cc(F)ccc2n1C(C)CN(C)C (centres unmarked) [Preparation 8, 5-fluoro-2-methyl-1-(1-methyl-2-dimethylaminoethyl)-1H-indole] | 25

Same assay, conditions: Mus musculus, po; read-out: Ach ED50

Row | Compound | ED50 [mg/kg]
22 | COc1ccc(C(=O)c2cn(CCN3CCOCC3)c3ccccc23)cc1.CS(=O)(=O)O.O [Example 1A, 3-(4-methoxybenzoyl)-1-[2-(4-morpholinyl)ethyl]-1H-indole methanesulfonate monohydrate] | 73
23 | O=C(c1ccccc1)c1cn(CCN2CCOCC2)c2ccccc12 [Example 1AP] | 42
24 | COc1ccc(C(=O)c2c(C)n(CCN3CCCC(OC(C)=O)C3)c3ccccc23)cc1.O=C(O)/C=C\C(=O)O (centres unmarked) [Example 21, 1-[2-(3-acetoxy-1-piperidinyl)ethyl]-2-methyl-3-(4-methoxybenzoyl)-1H-indole maleate (1:1)] | 31
25 | CCOC(=O)N1CCN(CCn2c(C)c(C(=O)c3ccc(OC)cc3)c3ccccc32)CC1.O=C(O)/C=C\C(=O)O [Example 22, 1-[2-(4-carbethoxy-1-piperazinyl)ethyl]-2-methyl-3-(4-methoxybenzoyl)-1H-indole maleate (1:1)] | 66.8
26 | COc1ccc(C(=O)c2c(C)n(CCN3CCN(C(C)=O)CC3)c3ccccc23)cc1.O=C(O)/C=C\C(=O)O [Example 23A, 1-[2-(4-acetyl-1-piperazinyl)ethyl]-2-methyl-3-(4-methoxybenzoyl)-1H-indole maleate (1:1)] | 85
27 | COc1ccc(C(=O)c2c(C)n(CCCN3CCN(C(C)=O)CC3)c3ccc(F)cc23)cc1.CS(=O)(=O)O [Example 23B, 5-fluoro-2-methyl-3-(4-methoxybenzoyl)-1-[3-(4-acetyl-1-piperazinyl)propyl]-1H-indole methanesulfonate] | 39
28 | COc1ccc(C(=O)c2c(C)n(CCCN)c3ccc(F)cc23)cc1.O=C(O)/C=C\C(=O)O [Example 25A, 1-(3-aminopropyl)-5-fluoro-2-methyl-3-(4-methoxybenzoyl)-1H-indole maleate (1:1)] | 82.5
29 | COc1ccc(C(=O)c2c(C)n(CCN)c3ccccc23)cc1.O=C(O)/C=C\C(=O)O [Example 25B, 1-(2-aminoethyl)-2-methyl-3-(4-methoxybenzoyl)-1H-indole maleate] | 42
30 | Cc1c(C(=O)c2ccc(-n3ccnc3)cc2)c2ccccc2n1CCN1CCOCC1 [Example 26E] | 73.1
31 | Cc1c(C(=O)c2ccc(-n3ccnc3)cc2)c2cc(F)ccc2n1CCCN1CCOCC1 [Example 26F] | 61
32 | COc1ccc(C(=O)c2c(C)n(CCN3CCNCC3)c3ccccc23)cc1.CS(=O)(=O)O.CS(=O)(=O)O [Example 27A, 2-methyl-3-(4-methoxybenzoyl)-1-[2-(1-piperazinyl)ethyl]-1H-indole dimethanesulfonate] | 20.7
33 | COc1ccc(C(=O)c2c(C)n(CCNCCO)c3ccccc23)cc1 [Example 27B, 1-[2-(2-hydroxyethylamino)ethyl]-2-methyl-3-(4-methoxybenzoyl)-1H-indole] | 59.8
34 | COc1ccc(C(=O)c2c(C)n(CCN3CCCC(N)C3)c3ccccc23)cc1.O=C(O)/C=C\C(=O)O.O=C(O)/C=C\C(=O)O (centres unmarked) [Example 27C, 1-[2-(3-amino-1-piperidinyl)ethyl]-2-methyl-3-(4-methoxybenzoyl)-1H-indole maleate (1:2)] | 29.4
35 | COc1ccc(C(=O)c2c(C)n(CCCN3CCNCC3)c3ccc(F)cc23)cc1.CS(=O)(=O)O.CS(=O)(=O)O [Example 27D, 5-fluoro-2-methyl-3-(4-methoxybenzoyl)-1-[3-(1-piperazinyl)propyl]-1H-indole dimethanesulfonate] | 30
36 | COc1ccc(C(=O)c2c(C)n(CC(O)CN3CCOCC3)c3ccc(F)cc23)cc1.Cl.O (centres unmarked) [Example 31A, 1-[2-hydroxy-3-(4-morpholinyl)propyl]-5-fluoro-2-methyl-3-(4-methoxybenzoyl)-1H-indole hydrochloride hydrate] | 58
37 | COc1ccc(C(=O)c2c(C)n(CC(O)CN3CCCC3)c3ccc(F)cc23)cc1 (centres unmarked) [Example 31C] | 53
38 | COc1ccc(C(=O)c2c(C)n(CC(O)CN3CCOCC3)c3ccccc23)cc1 (centres unmarked) [Example 31G] | 133
39 | COc1ccc(C(=O)c2c(C)n(CC(O)CN3CCCC3)c3ccccc23)cc1 (centres unmarked) [Example 31H] | 56
40 | COc1ccc(C(=O)c2c(C)n(CC(O)CN3CCC3)c3ccccc23)cc1 (centres unmarked) [Example 31K] | 28
41 | COc1ccc(C(=O)c2c(C)n(CC(O)CN(C)C)c3ccccc23)cc1 (centres unmarked) [Example 31L] | 32
42 | COc1ccc(C(=O)c2c(C)n(CC(O)CNC(C)C)c3ccccc23)cc1 (centres unmarked) [Example 31M] | 26
43 | COc1ccc(C(=O)c2c(C)n(CC(O)CN)c3ccccc23)cc1 (centres unmarked) [Example 32, 1-(3-amino-2-hydroxy-1-propyl)-2-methyl-3-(4-methoxybenzoyl)-1H-indole] | 85

System: bradykinin
Test: anti-bradykinin test (BRDK)
Assay type: in vivo
Settings: 50 mg./kg. oral; read-out: BRDK percent inhibition
Excerpt: The test procedures used to determine the analgesic activities of the compounds have been described in detail in the prior art and are as follows: The acetylcholine-induced abdominal constriction test, which is a primary analgesic screening test designed to measure the ability of a test agent to suppress acetylcholine-induced abdominal constriction in mice, described by Collier et al., Brit. J. Pharmacol. Chemotherap. 32, 295 (1968); a modification of the anti-bradykinin test, which is also a primary analgesic screening procedure, described by Berkowitz et al., J. Pharmacol. Exptl. Therap. 177, 500-508 (1971), Blane et al., J. Pharm. Pharmacol. 19, 367-373 (1967), Botha et al., Eur. J. Pharmacol. 6, 312-321 (1969) and Deffenu et al., J. Pharm. Pharmacol. 18, 135 (1966); and the rat paw flexion test, described by Kuzuna et al., Chem. Pharm. Bull., 23, 1184-1191 (1975), Winter et al., J. Pharm. Exptl. Therap., 211, 678-685 (1979) and Capetola et al., J. Pharm. Exptl. Therap. 214, 16-23 (1980).
Unless noted otherwise, all data were obtained on oral administration and are expressed either as the ED50 or as the percent inhibition at a given dose level (thus 30/100 or 30% inhibition at […].)
In some instances, the compounds were retested two or more times, and ED50 values were calculated for each series of repeat tests. In such instances, each of the ED50 values so-obtained is given in a series of values, thus 6, 28, 30, 43 in the case of the species of Example 1AW in the acetylcholine-induced abdominal constriction test.

Row | Compound | inhibition in vivo at 50 mg/kg [%]
44 | O=C(c1ccccc1)c1cn(CCN2CCOCC2)c2ccccc12 [Example 1AP] | 0

Same assay, conditions: 200 mg./kg. oral; read-out: BRDK percent inhibition

Row | Compound | inhibition in vivo at 200 mg/kg [%]
45 | O=C(c1ccccc1)c1cn(CCN2CCOCC2)c2ccccc12 [Example 1AP] | 33

Same assay, conditions: 400 mg./kg. oral; read-out: BRDK percent inhibition

Row | Compound | inhibition in vivo at 400 mg/kg [%]
46 | O=C(c1ccccc1)c1cn(CCN2CCOCC2)c2ccccc12 [Example 1AP] | 60

Same assay, conditions: po

Row | Compound | ED50 [mg/kg]
47 | COc1ccc(C(=O)c2cn(CCN3CCOCC3)c3ccccc23)cc1.CS(=O)(=O)O.O [Example 1A, 3-(4-methoxybenzoyl)-1-[2-(4-morpholinyl)ethyl]-1H-indole methanesulfonate monohydrate] | 56
